Results reported in US20060111381A1, “Amidine compounds” (priority 2002, published 2006).
Several values for one entry are separate records, joined by “and”; a condition that tells them apart may be missing. Equal entries are not always repeated. Structures can show the parent of a compound that is named as a salt.

Columns and labels:
human κ-opiate receptor = target: T1, human κ-opiate receptor (Homo sapiens, UniProt P41145); assay: In vitro opiate receptor radioligand binding assay (MDS 260210); conditions: test compound 10 μM, read-out: Percentage Inhibition of Radioligand Binding
T1 construct: purchased MDS Pharma Services 260210
Experimental: (§1) To characterise the target specificity of the compounds, KRS-6-41, KRS-6-48 and KRS-6-51 were tested at a concentration of 10 μM for their ability to inhibit the binding of a radioligand to human δ-, κ-, or μ-opiate receptors in vitro using commercially available assays (MDS Pharma Services; assay catalogue numbers 260110, 260210 and 260410 respectively).

ICR mice [1] = assay: Straub tail behaviour (indicator of CNS activity) in writhing-study mice; conditions: any doses (1 to 128 mg/kg IP)
human δ-opiate receptor = target: T2, human δ-opiate receptor (Homo sapiens, UniProt P41143); assay: In vitro opiate receptor radioligand binding assay (MDS 260110); conditions: test compound 10 μM, read-out: Percentage Inhibition of Radioligand Binding
T2 construct: purchased MDS Pharma Services 260110
Experimental: as §1

human μ-opiate receptor = target: T3, human μ-opiate receptor (Homo sapiens, UniProt P35372); assay: In vitro opiate receptor radioligand binding assay (MDS 260410); conditions: test compound 10 μM, read-out: Percentage Inhibition of Radioligand Binding
T3 construct: purchased MDS Pharma Services 260410
Experimental: as §1

ICR mice [2] = assay: Deaths and adverse signs observed in writhing-study mice; assay type: in vivo
Experimental: (§2) Testing on compound KRS-6-48 was carried out under contract by MDS Services—Taiwan Ltd. KRS-6-48 was evaluated for possible analgesic activity in the phenylquinone-induced writhing model in mice (Siegmund et al, 1957). A serial 2-fold dosage variance was used in the test, from 128 mg/kg to 1 mg/kg (8 doses in total). Groups of 3 male or female ICR mice weighing 22±2 g were employed. Variant doses (1, 2, 4, 8, 16, 32, 64 and 128 mg/kg) of test substances were administered intraperitoneally (IP). A vehicle of 2% Tween 80 in 0.9% NaCl was used for the intraperitoneal injection. The control group received vehicle alone. […] A reduction in the number of writhes by 50 percent or more (≧50%) relative to the vehicle-treated group indicated possible analgesic activity.
as §2, with “In each case, a” for “Testing on compound KRS-6-48 was carried out under contract by MDS Services—Taiwan Ltd. KRS-6-48 was evaluated for possible analgesic activity in the phenylquinone-induced writhing model in mice (Siegmund et al, 1957). A”

ICR mice [3] = assay: Phenylquinone-induced writhing model in mice (writhes counted in following 5-10 minute period); assay type: in vivo; conditions: for No. of Writhings, Individual: individual mice; for % Inhibition: relative to vehicle group
Experimental: as §2
Testing on compounds KRS-6-41, KRS-6-51, and KRS-6-71 was also carried out under contract by MDS Services—Taiwan Ltd. The study was designed to evaluate the effects of the compounds as analgesics in the phenylquinone-induced writhing assay described in detail in Example 10 (Siegmund et al, 1957).
as §2, with “In each case, a” for “Testing on compound KRS-6-48 was carried out under contract by MDS Services—Taiwan Ltd. KRS-6-48 was evaluated for possible analgesic activity in the phenylquinone-induced writhing model in mice (Siegmund et al, 1957). A”

T3 sequence (P35372 whole entry): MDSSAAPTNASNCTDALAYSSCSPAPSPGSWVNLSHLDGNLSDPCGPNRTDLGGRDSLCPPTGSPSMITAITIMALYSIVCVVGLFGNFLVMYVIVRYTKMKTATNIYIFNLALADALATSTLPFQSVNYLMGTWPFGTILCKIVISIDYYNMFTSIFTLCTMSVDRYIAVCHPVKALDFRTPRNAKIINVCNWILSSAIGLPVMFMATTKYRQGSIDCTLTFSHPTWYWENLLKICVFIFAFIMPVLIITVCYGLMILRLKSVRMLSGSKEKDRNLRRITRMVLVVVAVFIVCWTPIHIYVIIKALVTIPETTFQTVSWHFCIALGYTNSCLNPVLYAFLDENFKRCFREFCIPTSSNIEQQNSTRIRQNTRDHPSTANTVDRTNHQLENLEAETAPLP
T2 sequence (P41143 whole entry): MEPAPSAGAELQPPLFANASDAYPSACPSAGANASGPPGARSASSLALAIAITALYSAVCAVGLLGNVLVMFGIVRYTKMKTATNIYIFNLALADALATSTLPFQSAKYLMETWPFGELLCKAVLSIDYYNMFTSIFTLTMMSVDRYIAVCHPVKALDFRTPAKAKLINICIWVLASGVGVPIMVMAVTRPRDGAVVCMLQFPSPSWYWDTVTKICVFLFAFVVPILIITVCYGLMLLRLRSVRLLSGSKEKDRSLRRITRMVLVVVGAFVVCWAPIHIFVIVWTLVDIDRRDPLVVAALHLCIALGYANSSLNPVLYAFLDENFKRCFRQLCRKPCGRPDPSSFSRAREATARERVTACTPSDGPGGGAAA
T1 sequence (P41145 whole entry): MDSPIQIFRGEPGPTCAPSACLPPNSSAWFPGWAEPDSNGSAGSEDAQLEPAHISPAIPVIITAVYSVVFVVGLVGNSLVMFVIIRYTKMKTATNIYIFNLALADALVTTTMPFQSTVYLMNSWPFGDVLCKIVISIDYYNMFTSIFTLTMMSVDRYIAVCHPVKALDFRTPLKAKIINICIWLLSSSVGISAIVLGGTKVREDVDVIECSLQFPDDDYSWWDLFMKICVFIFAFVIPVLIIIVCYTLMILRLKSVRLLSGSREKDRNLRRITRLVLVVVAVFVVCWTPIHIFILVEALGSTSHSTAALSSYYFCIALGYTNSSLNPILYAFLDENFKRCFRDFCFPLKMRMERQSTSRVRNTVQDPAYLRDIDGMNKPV

CC(=Nc1ccccc1)NCCCN1CC[C@]23c4c5ccc(O)c4O[C@H]2[C@@H](O)C=CC3[C@H]1C5 (stereo partly drawn) [KRS-6-51, (5α,6α)-7,8-didehydro-4,5-epoxy-17-((N-phenylacetamidino)-propyl)morphinan, 3,6-diol]
inhibition at 10 µM (human κ-opiate receptor): 54% | Straub tail behaviour (ICR mice [1]): None of the test animals exhibited Straub tail behaviour | inhibition at 10 µM (human δ-opiate receptor): 37% | inhibition at 10 µM (human μ-opiate receptor): 97% | test animals exhibiting tremors and edema (ICR mice [2]; 128 mg/kg IP): 2 of the 3 | test animals died within 15 minutes (ICR mice [2]; 128 mg/kg IP, within 15 minutes): 21 of the 3 | No. of Writhings, Average (ICR mice [3]; 1 mg/kg IP): 12 | No. of Writhings, Individual (ICR mice [3]; 1 mg/kg IP): 11 and 14 and 12 | % Inhibition (ICR mice [3]; 1 mg/kg IP): 20% | No. of Writhings, Average (ICR mice [3]; 2 mg/kg IP): 11 | No. of Writhings, Individual (ICR mice [3]; 2 mg/kg IP): 18 and 9 and 7 | % Inhibition (ICR mice [3]; 2 mg/kg IP): 27% | No. of Writhings, Average (ICR mice [3]; 4 mg/kg IP): 10 | No. of Writhings, Individual (ICR mice [3]; 4 mg/kg IP): 10 and 13 and 7 | % Inhibition (ICR mice [3]; 4 mg/kg IP): 33% | No. of Writhings, Average (ICR mice [3]; 8 mg/kg IP): 8 | No. of Writhings, Individual (ICR mice [3]; 8 mg/kg IP): 9 and 8 (2×) | % Inhibition (ICR mice [3]; 8 mg/kg IP): 47% | No. of Writhings, Average (ICR mice [3]; 16 mg/kg IP): 8 | No. of Writhings, Individual (ICR mice [3]; 16 mg/kg IP): 12 and 4 and 7 | % Inhibition (ICR mice [3]; 16 mg/kg IP): 47% | No. of Writhings, Average (ICR mice [3]; 32 mg/kg IP): 5 | No. of Writhings, Individual (ICR mice [3]; 32 mg/kg IP): 3 and 5 and 7 | % Inhibition (ICR mice [3]; 32 mg/kg IP): 67% | No. of Writhings, Average (ICR mice [3]; 64 mg/kg IP): 0 | No. of Writhings, Individual (ICR mice [3]; 64 mg/kg IP): 0 | % Inhibition (ICR mice [3]; 64 mg/kg IP): 100% | No. of Writhings, Individual (ICR mice [3]; 128 mg/kg IP): died and 0 (2×) | analgesic activity in writhing model (in words) (ICR mice [3]; at doses of 64 and 32 mg/kg IP): significant activity

CCC(=Nc1ccccc1CC)NCCCN1CC[C@]23c4c5ccc(O)c4O[C@H]2[C@@H](O)C=CC3[C@H]1C5 (stereo partly drawn) [KRS-6-71, (5α,6α)-7,8-didehydro-4,5-epoxy-17-((N-(2-ethylphenyl)propionamidino)-propyl)morphinan, 3,6-diol]
melting point: 58 to 59 °C | Straub tail behaviour (ICR mice [1]): None of the test animals exhibited Straub tail behaviour | No. of Writhings, Average (ICR mice [3]; 1 mg/kg IP): 18 | No. of Writhings, Individual (ICR mice [3]; 1 mg/kg IP): 24 and 13 and 18 | % Inhibition (ICR mice [3]; 1 mg/kg IP): 22% | No. of Writhings, Average (ICR mice [3]; 2 mg/kg IP): 14 | No. of Writhings, Individual (ICR mice [3]; 2 mg/kg IP): 2 and 12 and 18 | % Inhibition (ICR mice [3]; 2 mg/kg IP): 39% | No. of Writhings, Average (ICR mice [3]; 4 mg/kg IP): 11 | No. of Writhings, Individual (ICR mice [3]; 4 mg/kg IP): 16 (2×) and 2 | % Inhibition (ICR mice [3]; 4 mg/kg IP): 52% | No. of Writhings, Average (ICR mice [3]; 8 mg/kg IP): 11 | No. of Writhings, Individual (ICR mice [3]; 8 mg/kg IP): 0 and 18 and 15 | % Inhibition (ICR mice [3]; 8 mg/kg IP): 52% | No. of Writhings, Average (ICR mice [3]; 16 mg/kg IP): 7 | No. of Writhings, Individual (ICR mice [3]; 16 mg/kg IP): 13 and 0 and 8 | % Inhibition (ICR mice [3]; 16 mg/kg IP): 70% | No. of Writhings, Average (ICR mice [3]; 32 mg/kg IP): 7 | No. of Writhings, Individual (ICR mice [3]; 32 mg/kg IP): 6 and 0 and 15 | % Inhibition (ICR mice [3]; 32 mg/kg IP): 70% | No. of Writhings, Average (ICR mice [3]; 64 mg/kg IP): 1 | No. of Writhings, Individual (ICR mice [3]; 64 mg/kg IP): 0 (2×) and 3 | % Inhibition (ICR mice [3]; 64 mg/kg IP): 96% | No. of Writhings, Average (ICR mice [3]; 128 mg/kg IP): 0 | No. of Writhings, Individual (ICR mice [3]; 128 mg/kg IP): 0 | % Inhibition (ICR mice [3]; 128 mg/kg IP): 100%

CC(=N)NCCCN1CC[C@]23c4c5ccc(O)c4O[C@H]2[C@@H](O)C=CC3[C@H]1C5 (stereo partly drawn) [KRS-6-41, (5α,6α)-7,8-didehydro-4,5-epoxy-17-(3-acetamidinopropyl)morphinan, 3,6-diol]
inhibition at 10 µM (human κ-opiate receptor): 58% | Straub tail behaviour (ICR mice [1]): None exhibited Straub tail behaviour | inhibition at 10 µM (human δ-opiate receptor): 68% | inhibition at 10 µM (human μ-opiate receptor): 97% | test animals died (ICR mice [2]; 64 mg/kg IP): 1 of 3 | test animals died (ICR mice [2]; 128 mg/kg IP): 3 of 3 | No. of Writhings, Average (ICR mice [3]; 1 mg/kg IP): 14 | No. of Writhings, Individual (ICR mice [3]; 1 mg/kg IP): 12 and 15 and 14 | % Inhibition (ICR mice [3]; 1 mg/kg IP): 0% | No. of Writhings, Average (ICR mice [3]; 2 mg/kg IP): 14 | No. of Writhings, Individual (ICR mice [3]; 2 mg/kg IP): 14 and 6 and 22 | % Inhibition (ICR mice [3]; 2 mg/kg IP): 0% | No. of Writhings, Average (ICR mice [3]; 4 mg/kg IP): 12 | No. of Writhings, Individual (ICR mice [3]; 4 mg/kg IP): 14 and 8 and 15 | % Inhibition (ICR mice [3]; 4 mg/kg IP): 8% | No. of Writhings, Average (ICR mice [3]; 8 mg/kg IP): 10 | No. of Writhings, Individual (ICR mice [3]; 8 mg/kg IP): 6 and 10 and 14 | % Inhibition (ICR mice [3]; 8 mg/kg IP): 23% | No. of Writhings, Average (ICR mice [3]; 16 mg/kg IP): 9 | No. of Writhings, Individual (ICR mice [3]; 16 mg/kg IP): 5 and 16 and 6 | % Inhibition (ICR mice [3]; 16 mg/kg IP): 31% | No. of Writhings, Average (ICR mice [3]; 32 mg/kg IP): 8 | No. of Writhings, Individual (ICR mice [3]; 32 mg/kg IP): 4 and 10 and 11 | % Inhibition (ICR mice [3]; 32 mg/kg IP): 38% | No. of Writhings, Individual (ICR mice [3]; 64 mg/kg IP): 4 and 14 and died | No. of Writhings, Individual (ICR mice [3]; 128 mg/kg IP): died | inhibition of writhing (in words) (ICR mice [3]; at doses of 32, 16, 8 and 4 mg/kg IP): a moderate level of inhibition of writhing

CCC(=Nc1ccccc1)NCCCN1CC[C@]23c4c5ccc(O)c4O[C@H]2[C@@H](O)C=CC3[C@H]1C5 (stereo partly drawn) (as salt: HCl) [KRS-6-48, (5α,6α)-7,8-didehydro-4,5-epoxy-17-((N-phenylpropionamidino)-propyl)morphinan, 3,6-diol]
melting point: 188 to 190 °C
